Where a SMILES comes first, the peptide text is derived from it. Bridges are numbered along the chain shown (N, C = ends).
How the values were obtained:
[1] = molecular target: Factor VII and tissue factor (Homo sapiens, UniProt P13726); conditions: Corvas Inc., Table 1 of WO90/03390; cited from earlier work
[2] = molecular target: binding of Factor VII to tissue factor (Homo sapiens, UniProt P13726); assay: Inhibition of FVII/TF binding or FVII activity, assay not specified (summary statements)
[3] = tested on: coagulation factors of the intrinsic and common pathways of coagulation; assay: Coagulation assay initiated by contact activation (Cephotest); conditions: all coagulation factors other than TF/FVII
From the text: The effect of the peptides observed in the coagulation assay could conceivably have been due to effects on another one or more of the several components contributing to the coagulation cascade. This possibility was therefore tested by adding the peptides to coagulation assays which were initiated by contact activation (Cephotest™, Nycomed), and therefore involved coagulation factors of the intrinsic and common pathways of coagulation, i.e. all coagulation factors other than TF/FVII. […] Thus evidence was obtained that the effects observed in the TF/FVII initiated coagulation assay above were in fact due to a direct effect on the TF/FVII complex.

[4] = molecular target: FVII binding to immobilized rTF (Homo sapiens, UniProt P13726); assay: ELISA assay of inhibition of FVII binding to immobilized rTF; conditions: for inhibition at 500 µM: peptide 0.5 mM
Method: FIG. 13 ELISA assay of the inhibition of FVII binding to immobilized rTF produced by synthetic FVII peptides (all at 0.5 mM). For peptide sequences see the table of peptides below (page 19). C and L denote the cyclic and linear forms respectively of peptides with terminal cysteines.
The inhibition results shown in FIG. 13 indicate that in addition to sequences from the "hinge" region (i.e. residues 41-48 between the GLA domain and the first EGF domain, […]) and from the first EGF domain itself (i.e. residues 50-61; Clarke et al), there exist additional sequences in the second EGF domain (especially 95-104) which are inhibitors when presented as peptides in this binding assay.

[5] = molecular target: T1, purified human FVIIa bound to recombinant human TF (apoTF/FVIIa) (Homo sapiens, UniProt P13726); assay: Assay of apoTF/FVIIa catalytic (amidolytic) activity; format: biochemical; conditions: for IC50: read-out: IC50, Amidolytic apo TF Assay
T1 construct: purchased American Diagnostica (TF); Enzyme Research Laboratories (FVIIa) 4500 (TF); HFVlla (FVIIa)
Method: Assay of apoTF/FVIIa Catalytic Activity
This […] assay was used to measure directly the amidolytic (catalytic) activity of purified human FVIla when bound to recombinant human TF in the absence of phospholipid.
Reactions were performed in microtitre plate wells, using a final incubation volume of 200 uL. Test compounds, dissolved in water, (final concentration, 0-1 mM) were preincubated with recombinant human tissue factor (American Diagnostica, cat# 4500; 5 nM) and CaCl2 (5 mM) in Tris buffer (100 mM), pH 7.2, containing NaCl (150 mM) and BSA (1 mg/mL) at ambient temperature for 30 minutes. Factor Vlla (Enzyme Research Laboratories, cat# HFVlla; 5 nM) was added and the incubations continued for 60 minutes. Chromogenic substrate, S2288 (Chromogenix cat# 820852; 0.5 mM) was then added and the enzymatic activity of the tissue factor apoprotein/factor VII complex (apoTF/FVlla) was monitored at 405 nm.

[6] = molecular target: T2, tissue factor (TF) expressed on the surface of living cells (Homo sapiens, UniProt P13726); assay: Assay of cell-surface TF initiated coagulation of plasma (microcarrier coagulation assay); format: cell-based; conditions: peptide 0.5 mM
T2 construct: induced by tissue factor (TF) expressed on the surface of living cells; endogenous in cells; host or cells: living cells on Cytodex-3 microcarriers (e.g. human HT-1080 or ECV-304)
Method: FIGS. 9A-9C Principle of the microcarrier assay of cell-surface mediated coagulation of blood plasma. Living cells (e.g., human HT-1080 fibrosarcoma; ATCC CRL 121) adherent on the surface of microcarriers are mixed with a calcium-containing buffer and plasma in the incubation well of a Thrombotrack™ electromagnetic coagulometer (Nycomed). The clotting time is measured by the increase in resistance to movement of a magnetic ball produced by the formation of fibrin fibres. HT-1080 cells adherent on Cytodex-3 microcarriers are shown in FIG. 9C as an example of the types of cells expressing TF which may be used.
Assay of Cell-surface TF Initiated Coagulation of Plasma
A novel assay system has been devised to measure the coagulation of blood plasma (i.e. clotting time) induced by tissue factor (TF) expressed on the surface of living cells. This assay makes use of human or animal cells adherent on the surface of microcarriers (see FIG. 9), which enables reproducible presentation of known amounts of TF activity in the stirred measuring well of an electromagnetic coagulometer. The cells used may be normal or transformed, and representing phenotypes such as monocytes, endothelium, fibroblasts etc (see FIG. 10).
This novel assay has been particularly developed and characterised so as to be highly useful in determining the effect of synthetic peptides and peptidomimetic compounds on the extrinsic pathway of coagulation, using living cells in a plasma milieu. Results for the inhibitory effect of synthetic peptides based upon the amino acid sequence of human FVII are disclosed.
The microcarrier cell preparation is made as follows. Cells obtained from primary isolates or subcultures of transformed lines (see FIG. 10) are suspended in a small volume of serum-containing medium and mixed with microcarriers (Cytodex-3, Pharmacia) in a ratio of about 50-100 cells/microcarrier. The cells are usually adhere nt on the microcarriers within 2 hours, and can then be transferred to normal roller bottles with a larger volume of culture medium. Uniform coverage of microcarriers with about 20-60 cells can be obtained directly with transformed cells, when large cell numbers are available, or after 2 days growth when primary cultures (e.g. umbilical vein endothelial cells) are used. […]
To assay the extrinsic coagulation activity, the microcarrier cell preparations are first washed with a calcium-free buffer to remove bound serum factors. A calcium-containing buffer and plasma are then added and the clotting time is determined automatically in an electromagnetic coagulometer. […]

[7] = molecular target: T3, native TF/FVIIa complex on the surface of HT-1080 cells (Homo sapiens, UniProt P13726); assay: Assay of HT1080 cell surface TF/FVIIa mediated activation of FX (amidolytic microcarrier assay); format: cell-based
T3 construct: native TF/FVIIa complex on the surface of living cells expressing TF in their cell membrane; endogenous in cells; host or cells: HT-1080 human fibrosarcoma cells on Cytodex-3 microcarriers

[8] = molecular target: T4, FVIIa/TF (Homo sapiens, UniProt P13726); assay: Kinetics of inhibition of FX activation (assay of FVIIa/TF activity); format: biochemical; conditions: varying FVII-5 and Factor X concentrations
T4 construct: purchased Behringwerk (TF, Thromborel); Diagnostica Stago (FVIIa)
Method: Peptides (0-1 mM) were preincubated in 0.1 M Tris.HCl pH 7.2 with tissue factor (Thromborel®, Behringwerk, Marburg, Germany; 0.2% final concentration) at 22° C. for 30 minutes, then Factor X (American Diagnostica Inc., Greenwich, Conn. USA; 70 nM was added followed by FVIIa (Diagnostica Stago, Asnieres, France; 8 pM and CaCl2 (5 mM). Incubations were continued for 30 minutes and quenched with EDTA (50 mM) which removes essential Ca^2+. The FXa produced was quantified by monitoring hydrolysis of the chromegenic FX substrate S-2222 (Chromogenix,Molndal, Sweden).
The kinetics of inhibition of FX activation by FVII-5 was investigated. Varying concentrations of FVII-5 were incubated with different concentrations of Factor X in the presence or absence of TF and FVIIa.

Sequence of binding of Factor VII to tissue factor (P13726 33-295): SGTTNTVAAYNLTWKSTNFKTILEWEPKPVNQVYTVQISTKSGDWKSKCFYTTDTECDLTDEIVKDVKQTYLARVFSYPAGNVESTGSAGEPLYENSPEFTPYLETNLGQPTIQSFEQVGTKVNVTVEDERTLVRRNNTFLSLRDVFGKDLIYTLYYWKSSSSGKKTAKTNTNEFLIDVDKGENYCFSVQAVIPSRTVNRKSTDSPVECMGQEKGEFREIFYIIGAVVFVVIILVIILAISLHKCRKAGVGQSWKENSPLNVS
T1 sequence (P13726 33-295): as above
Sequence of Factor VII and tissue factor (P13726 33-295, species assumed): as the sequence (P13726 33-295) above
Sequence of FVII binding to immobilized rTF (P13726 33-295): as above
T2 sequence (P13726 33-295): as above
T3 sequence (P13726 33-295, one chain of several): as the sequence (P13726 33-295) above
T4 sequence (P13726 33-295): as above

| Compound | Inhibitory activity, in words [2] | inhibition at 500 µM [6] [%] | Inhibition of activation of Factor X by Factor VII and tissue factor as reported in WO90/03390 [1] | Effect on contact-activated coagulation (specificity) [3] | also measured |
| --- | --- | --- | --- | --- | --- |
| SDHTGTKRSC [reference compound] | only moderate activity |  | active |  | Inhibitor of the binding of Factor VII to tissue factor, in words [2]: rather poor inhibitor |
| Hirudin [reference compound] |  |  |  | strongly inhibitory |  |
| CC(C)C[C@@H]1NC(=O)[C@H](CC(C)C)NC(=O)[C@H](CO)NC(=O)[C@H](Cc2ccc(O)cc2)NC(=O)CNC(=O)[C@H](CCC(=O)O)NC(=O)[C@H](Cc2c[nH]cn2)NC(=O)[C@@H](N)CSSC[C@@H](C(=O)O)NC(=O)[C@H](CO)NC(=O)[C@H](C(C)C)NC(=O)CNC(=O)[C@H](CC(=O)O)NC(=O)[C@H](C)NC1=O [114-127(C)] (H-CHEGYSLLADGVSC-OH; disulfide 1-14) |  | 44 |  |  | inhibition at 500 µM [4]: 77%; inhibition at 500 µM ([5]; peptide 0.5 mM, did not reach near-quantitative inhibition at 1 mM, read-out: % inhibition at 0.5 mM, Amidolytic apo TF Assay): 21% |
| TAP: tick anticoagulant polypeptide; control inhibitor of FX (YNRLCIKPRDWIDECDSNEGGERAYFRNGKGGCDSFWICPEDHTGADYYSSYRDCFNACI; UniProt P17726 1-60, looked up) [reference compound] |  |  |  | strongly inhibitory | Inhibition of FXa amidolytic activity generated by HT-1080 cell-surface TF/FVIIa ([7]; HT-1080 cells): inhibition of activity |
| CLPAFEGRNC [72-81] |  |  | zero inhibitory acticity |  | Synergistic enhancement of the inhibitory action of peptides of the sequence 91 to 104 ([2]; in combination): acted synergistically |
| CC(C)[C@H](NC(=O)[C@@H](N)CS)C(=O)N[C@@H](CC(N)=O)C(=O)N[C@@H](CCC(=O)O)C(=O)N[C@@H](CC(N)=O)C(=O)NCC(=O)NCC(=O)N[C@@H](CS)C(=O)N[C@@H](CCC(=O)O)C(=O)N[C@@H](CCC(N)=O)C(=O)N[C@@H](Cc1ccc(O)cc1)C(=O)N[C@@H](CS)C(=O)O [91-102(L)] (H-CVNENGGCEQYC-OH; N-terminus and C-terminus assumed) |  | 14 |  |  | IC50 [4]: 60 µM; IC50 [5]: 1140 µM |
| CC(C)[C@@H]1NC(=O)[C@@H](N)CSSC[C@@H](C(=O)O)NC(=O)[C@H](Cc2ccc(O)cc2)NC(=O)[C@H](CCC(N)=O)NC(=O)[C@H](CCC(=O)O)NC(=O)[C@H](CS)NC(=O)CNC(=O)CNC(=O)[C@H](CC(N)=O)NC(=O)[C@H](CCC(=O)O)NC(=O)[C@H](CC(N)=O)NC1=O [91-102(C)] (H-CVNENGGCEQYC-OH; disulfide 1-12 (inferred)) |  |  |  |  | Mode of inhibition of Factor X activation [8]: noncompetitive inhibition |
| CC(C)C[C@@H]1NC(=O)[C@@H](N)CSSC[C@@H](C(=O)O)NC(=O)[C@H](CC(N)=O)NC(=O)[C@H](CCCNC(=N)N)NC(=O)CNC(=O)[C@H](CCC(=O)O)NC(=O)[C@H](Cc2ccccc2)NC(=O)[C@H](C)NC(=O)[C@@H]2CCCN2C1=O [72-81(C)] |  | 22 |  |  | inhibition at 500 µM [4]: 89% |

Second part, led by results:

| Inhibitory activity, in words [2] | inhibition at 500 µM [6] [%] | Compound | Inhibition of activation of Factor X by Factor VII and tissue factor as reported in WO90/03390 [1] | Effect on contact-activated coagulation (specificity) [3] | also measured |
| --- | --- | --- | --- | --- | --- |
| particularly active |  | CVNENGGCEQYC [91-102, FVII residues 91-102] | zero inhibitory acticity | inactive |  |
| most active inhibitor so far tested |  | NGGCEQYCSD [95-104, FVII residues 95 to 104] |  | inactive | Inhibition of FVII binding to rTF, in words ([4]; peptides at 0.5 mM (FIG. 13)): inhibitors |
| relatively active |  | CHEGYSLLADGVSC [114-127, FVII residues 114-127] | zero inhibitory acticity |  |  |
|  | 30 | Ac-SDHTGTKRS-NH2 [103-111] |  | inactive | inhibition at 500 µM [4]: 59%; IC50 ([7]; HT-1080 cells on microcarriers): 870 µM; IC50 [5]: 2200 µM |
